Measured values reported in patent US5217953A, “Vasoactive intestinal peptide antagonist” (The United States of America as represented by the …, priority 1990, dated 1993).
Like-named read-outs stand apart in the source and are kept apart here. No end group written: not given here.

What was measured:
[1] = molecular target: NSCLC VIP receptors (EPLC-65H membranes); experiment: 125I-VIP binding to EPLC-65H membranes; details: for IC50 / Kd: EPLC-65H membranes; for IC50: 37° C., 60 min, read-out: IC50, inhibition of specific 125I-VIP binding
Experimental: The binding properties and the adenylate cyclase activity of the VIP receptor in NSCLC cell lines were investigated. NSCLC cells were cultured in RPMI-1640 containing 10% heat inactivated fetal bovine serum (Carney et al. (1985) Cancer Res. 45:2913-2923). When a monolayer formed, the adherent cells were washed with PBS and treated with trypsin/EDTA. The cells were pelleted and resuspended in serum supplemented medium and incubated at 37° C. in 5% CO2 /95% air. Routinely the cells were passed 1/1 weekly and experiments were conducted when the cells were in exponential growth phase.
Cells were rinsed twice in PBS. Membranes were prepared from EPLC-65H by lysing cells in 20 mM Tris.HCl (pH7.5), 1 mg/ml bacitracin, 1 mM PMSF and 0.25M sucrose. The cells were sonicated (15 sec, 120 W) and the membranes centrifuged at 500×g for 5 min in a Beckman J-21 B centrifuge at 4° C. The supernatant was saved and the pellet resuspended, homogenized and centrifuged. The supernatants were combined and centrifuged at 50,000×g for 30 min. The pellet, which contains plasma membranes, was resuspended and 50 μg of membrane protein and 2×10^5 cpm of ^125 I-VIP (2200 Ci/mmol) was added to each assay tube in a total volume of 100 μl; the buffer was 50 mM Tris.maleate, 2 mM MgCl2, 2% BSA, 500 KIU/ml trasylol and 0.2 mg/ml bacitracin. The samples were incubated at 37° C. for 60 min. To terminate the reaction, the incubation solution was centrifuged for 3 min in a microfuge B. The supernatant, which contained free peptide was removed and the top of the pellet rinsed three times with cold assay buffer. The pellet, which contained bound ^125 I-VIP was counted in a gamma counter.
^125 I was purchased from NEN. VIP was iodinated using the chloramine T procedure (Christophe et al. (1976) J. Biol. Chem. 251:4629-4634). ^125 I-VIP was purified using gel filtration techniques. VIP peptides were purchased from Peninsula Laboratories Inc. (San Carlos, Calif.).

[2] = test system: castrated rats injected with testosterone; experiment: Sexual behavior of castrated rats supplemented with testosterone; format: in vivo, rat
Experimental: Rats were castrated and injected with testosterone (4 μg/100 g BW) daily for 14 consecutive days. VIP (5 μg/animal) and the antagonists (30 μg/animal) were injected ip in a volume of 0.25 ml. Initial experiments were conducted using iv injections; however, as no significant differences were observed between iv and ip administration, ip injections were chosen in this model. When comparisons were made, the same group of rats was injected with one peptide and, after a period of at least 24 hr, with another peptide.

VIP receptor = experiment: [125I]VIP binding to rat cortical astrocyte (glial) cell cultures; details: 60 pM [125I]VIP, intact cells, 4° C.; for displacement of VIP binding: 10 μM
Experimental: Rat cortical astrocyte cultures were prepared by previously described methods (Evans et al. (1984) J. Neurochem. 43:131; Brenneman et al.(1987) J. Cell Biol. 104:1603). VIP binding studies were conducted on intact cells at 4° C., using PBS containing 0.1% BSA. The cultures (1 mg protein/35 mm culture dish) were incubated with either VIP or the antagonist (10 μM to 1 pM) for 30 min before the addition of 60 pM [^125 I]VIP at Tyr-22 (2000 Ci/mmol; Amersham Corp., Arlington Heights, Ill). Labeled VIP was incubated with the cultures for 1 hr; the medium was then removed, and cells were washed three times by the addition and rapid removal of 1 ml PBS (at 4° C.). The labeled cells were dissolved in 0.02N NaOH and transferred for radioactivity counting.

cAMP levels in 5M2 cells = experiment: cAMP radioimmunoassay in 5M2 cells; format: cell-based; details: 5 min exposure
Experimental: The cAMP assays were performed by radioimmunoassay. 5M2 cells were exposed to stimuli in SIT medium (RPMI-1640 containing 10^-8 M Se2 O3, 1 μg/ml insulin and 3×10^-8 M transferrin) containing […] isobutyl-methyl-xanthine. After 5 min, the reaction was quenched by adding an equal volume of ice cold ethanol. The samples were vortexed and an aliquot of supernatant removed and added to 100 μl of 50 mM sodium acetate (pH 6.2). The sample (25 μl) was acetylated at 4° C. by adding 10 μl of triethylamine followed by 5 μl of acetic anhydride. Then 200 μl of goat anti-cyclic AMP antibody was added followed by 8,000 cpm of ^125 I-2-succinyl (tyrosine methyl ester)-cyclic AMP (NEN). After incubation for 16 hr at 4° C., 1 ml of charcoal suspension (2 mg/ml Norit-A charcoal in 100 mM phosphate buffer, pH 6.3, which contains 0.25% BSA) was added, the tubes vortexed and centrifuged at 1,500×g for 10 min. An aliquot (1 ml) of supernatant, which contains radiolabeled antigen-antibody complex, was counted in a gamma counter.

[3] = test system: pituitary-transplanted male rats; experiment: Sexual behavior of pituitary-grafted gonadally intact male rats; format: in vivo, rat; details: 5 ug iv
Source text: (§1) Male rats were sexually experienced Wistar-derived animals (250-300 g), approximately 3 months old from the Department of Hormone Research, Weizmann Institute of Science. All rats were kept in a 12-hr light, 12-hr dark cycle. Experiments were always conducted within the dark period 2-6 hrs after the onset of darkness. Before testing, each male was put in a separate cage for a period of at least 1 hr. A sexually receptive female (as tested by vaginal smearing) was introduced to each male. Latencies were defined as the intervals between copulatory behaviors (mounts and intromissions). These were recorded over a 15-min period. The latencies to the first copulatory event are reported separately.
This procedure results in hyperprolactinemia and a decrease in sexual potency in male rats. Pituitary-transplanted male rats (8 weeks after transplantation) were injected with 5 μg VIP, iv. As a control, saline iv was injected at identical volumes. The peptide was injected into the tail vein, restraining the animal by hand (two people were involved in the actual injection). The animals were subjected to the behavioral tests immediately after the injection. At least 24 hr elapsed between two consecutive tests per animal (i.e. between saline injection and VIP injection). The doses of VIP were deduced from those used to induce penile erection in men (Ottesen et al. (1984) Br. Med. J. 288:9). The statistical analysis involved a single test measurement per animal.

castrated rats = experiment: Sexual behavior of castrated rats without testosterone supplementation; format: in vivo, rat
Source text: as §1
After castration, the animals lose sexual activity in a time-dependent manner (Bradshaw et al. (1981) Endocrinology 109:1047; Reach et al. (1946) J. Exp. Zool. 101:91), and eventually all sexual activities are blocked. […] VIP (5 μg/animal) and the antagonists (30 μg/animal) were injected ip in a volume of 0.25 ml. Initial experiments were conducted using iv injections; however, as no significant differences were observed between iv and ip administration, ip injections were chosen in this model. When comparisons were made, the same group of rats was injected with one peptide and, after a period of at least 24 hr, with another peptide. The other parameters used for the experiment are described above.
The second paradigm was the castrated rat model.

[4] = test system: NSCLC VIP receptors (EPLC-65H membranes); experiment: 125I-VIP binding to EPLC-65H membranes
NCI-H522 = experiment: Soft agar colony formation, NCI-H522; format: cell-based; details: 1 μM, 2 weeks
Experimental: (§2) In order to test whether the VIP-neurotensin hybrid antagonist inhibited the growth of NSCLC, single viable cells (10^4) were plated in soft agar in the absence and presence of 1 μM VIP-neurotensin hybrid antagonist. After 2 weeks, colonies were stained with a vital dye and live colonies (>[…]) counted. The colony fraction (colonies in the presence of the VIP-neurotensin hybrid antagonist relative to the number of basal colonies) was calculated. Cell lines NCI-H522, NCI-H838, and NCI-H1246 had colony fractions of 0.45±0.16, 0.76±0.04, and 1.47±0.30, respectively. The VIP-neurotensin hybrid antagonist inhibited colony formation of cell lines NCI-H522 and NCI-H838 but not NCI-H1246.

NCI-H838 = experiment: Soft agar colony formation, NCI-H838; format: cell-based; details: 1 μM, 2 weeks
Experimental: as §2

NCI-H1246 = experiment: Soft agar colony formation, NCI-H1246; format: cell-based; details: 1 μM, 2 weeks
Experimental: as §2

[5] = coinjected ip with VIP at 3-fold molar excess

## secretin
[1]
  IC50: 300 nM

## GHRH: unlabeled peptide tested for specificity of 125I-VIP binding
[1]
  IC50: 20 nM

## VIP: a 28 amino acid peptide with an amidated C-terminal; widely distributed peptide hormone
[2]; 5 ug ip
  decrease in intervals (intromission latencies) between copulatory events: 2 fold
[2]; 5 ug ip, nine animals, 74±10 without VIP
  latency to the first intromission: 40 ± 9 s
[2]; 5 ug ip, vs saline injection
  increase in the rate of intromissions before ejaculation or end of test period: ~2 fold
[2]; after VIP treatment, 15 animals
  animals that ejaculated: 80-100%
VIP receptor
  displacement of VIP binding: 75%
cAMP levels in 5M2 cells
  ED50, increase of cAMP levels: 10 nM
[3]
  mean latency to the first mount and intromission: 23 ± 4 s
[3]; 15-min test, vs saline
  mean interval between copulatory events: significant reduction
  rate of copulation: significant increase
[3]; vs control
  decrease in the latency to the first intromission: 2- to 3 fold
[3]; 10-20% before treatment
  rats that ejaculated: all of the rats ejaculated
Castrated rats; 14 days after castration, 5 ug ip
  drop in the intervals between copulatory events (including latency to first intromission): 2- to 4 fold
Castrated rats; 14 days after castration, 5 ug ip, six animals, 90±16 before
  intromission latency: 35 ± 2.4 s
Castrated rats; model without testosterone supplementation, after VIP treatment
  animals that ejaculated: 1 of 6
[1]
  IC50: 10 nM

## peptide histidine isoleucine amide (HADGVFTSDYSRLLGQISAKKYLESLI-NH2; UniProt P01283 81-107, looked up) [PHI, cosynthesized with VIP on the same protein precursor]
[2]; PHI by itself or VIP plus PHI equimolar
  average latency to intromissions and rate of copulatory events, difference from VIP by itself: 2 fold
[2]; in the presence of PHI, 5 ug iv
  animals that ejaculated: one of nine
[2]; peptide by itself (5 ug iv) or with VIP
  effect on rat sexual behavior: inhibited rat sexual behavior and VIP-induced rat sexual behavior
[1]
  IC50: 80 nM

## ^125 I-VIP: VIP iodinated using the chloramine T procedure; radiolabeled VIP
[4]
  time to half maximal specific binding (association): 20 min
  time to maximal specific binding (association): 60 min
[1]; read-out: Kd, high affinity site (Scatchard)
  Kd: 0.7 nM
[1]; read-out: Kd, low affinity site (Scatchard)
  Kd: 20 nM
[1]; after addition of 1 μM unlabeled VIP
  time at which half of the specific binding was reversed (dissociation): 40 min

## helodermin
[1]
  IC50: 100 nM

## Lys-Pro-Arg-Arg-Pro-Tyr-Thr-Asp-Asn-Tyr-Thr-Arg-Leu-Arg-Lys-Gln-Met-Ala-Val-Lys-Lys-Tyr-Leu-Asn-Ser-Ile-Leu-Asn-NH2 (KPRRPYTDNYTRLRKQMAVKKYLNSILN-NH2) [VIP-neurotensin hybrid antagonist]
[2]; [5]
  effect on VIP-stimulated sexual activity: complete blockade of VIP activity
  sexual activity values lower than the control values: 2 fold
[2]; coinjected ip with VIP at 3-fold molar excess, 40±9 with VIP alone
  latency to the first copulatory event: 92 ± 20 s
[2]; injected by itself, 10 animals, from 1.66±0.12
  rate of copulatory events: 1.16±0.11
[2]; injected by itself, 10 animals, from 36.9±2.4
  intromission interval: 53.4 ± 8.6 s
NCI-H522
  colony fraction (colonies with antagonist relative to basal colonies): 0.45±0.16
NCI-H838
  colony fraction (colonies with antagonist relative to basal colonies): 0.76±0.04
VIP receptor; read-out: IC50, first binding site of biphasic displacement curve
  IC50: 0.05 nM
VIP receptor; read-out: IC50, second binding site of biphasic displacement curve
  IC50: 100 nM
VIP receptor
  displacement of VIP binding: 85-90%
NCI-H1246
  colony fraction (colonies with antagonist relative to basal colonies): 1.47±0.30
[1]
  IC50: 10 nM

## LMYPTYLK [octamere]
[2]; coinjected with VIP (5 ug), 20-fold molar excess, 30 ug/animal ip
  effect on VIP-stimulated sexual behavior: specifically inhibited VIP effects on sexual behavior
